Values of other authors in patent US20250255875A1, “BIFUNCTIONAL CHIMERIC MOLECULES FOR LABELING OF KINASES WITH TARGET BINDING MOIETIES AND METHODS OF USE THEREOF” (The Brigham and Women's Hospital, Inc., priority 2022, published 2025).

Legend:
NF-kB = conditions: mice
Lyn kinase = conditions: knockout mice
Recombinant PK… (PKCζ) = molecular target: T1, Recombinant PK… (PKCζ) (Homo sapiens, UniProt Q05513)
T1 sequence (Q05513 1-592): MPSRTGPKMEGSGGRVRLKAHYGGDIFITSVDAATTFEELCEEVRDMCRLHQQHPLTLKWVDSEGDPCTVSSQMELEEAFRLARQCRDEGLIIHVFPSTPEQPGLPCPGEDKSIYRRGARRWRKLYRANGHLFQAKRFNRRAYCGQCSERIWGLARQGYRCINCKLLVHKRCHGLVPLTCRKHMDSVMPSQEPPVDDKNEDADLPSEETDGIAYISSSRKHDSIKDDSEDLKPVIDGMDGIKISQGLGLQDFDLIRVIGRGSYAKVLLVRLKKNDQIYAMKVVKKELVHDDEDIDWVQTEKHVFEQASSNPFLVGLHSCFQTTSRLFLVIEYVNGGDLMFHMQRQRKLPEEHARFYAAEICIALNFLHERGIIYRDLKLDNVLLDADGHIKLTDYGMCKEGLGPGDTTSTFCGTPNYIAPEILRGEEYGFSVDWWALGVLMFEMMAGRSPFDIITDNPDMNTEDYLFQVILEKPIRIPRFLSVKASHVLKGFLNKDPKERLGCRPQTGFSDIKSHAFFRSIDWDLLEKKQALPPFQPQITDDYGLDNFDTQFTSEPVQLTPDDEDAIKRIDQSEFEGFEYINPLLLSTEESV

mutant EGFR = conditions: 0.01-10 uM
[1] = not given; remark: listed apart in the source
[2] = test system: breast, prostate, colon and pancreatic carcinoma xenografts; conditions: in vivo
c-Met = c-Met (Homo sapiens, UniProt P08581)
p38α MAPK = p38α MAPK (Homo sapiens, UniProt Q16539)
MERS-COV = conditions: in vitro

Sequence of c-Met (P08581 25-1390): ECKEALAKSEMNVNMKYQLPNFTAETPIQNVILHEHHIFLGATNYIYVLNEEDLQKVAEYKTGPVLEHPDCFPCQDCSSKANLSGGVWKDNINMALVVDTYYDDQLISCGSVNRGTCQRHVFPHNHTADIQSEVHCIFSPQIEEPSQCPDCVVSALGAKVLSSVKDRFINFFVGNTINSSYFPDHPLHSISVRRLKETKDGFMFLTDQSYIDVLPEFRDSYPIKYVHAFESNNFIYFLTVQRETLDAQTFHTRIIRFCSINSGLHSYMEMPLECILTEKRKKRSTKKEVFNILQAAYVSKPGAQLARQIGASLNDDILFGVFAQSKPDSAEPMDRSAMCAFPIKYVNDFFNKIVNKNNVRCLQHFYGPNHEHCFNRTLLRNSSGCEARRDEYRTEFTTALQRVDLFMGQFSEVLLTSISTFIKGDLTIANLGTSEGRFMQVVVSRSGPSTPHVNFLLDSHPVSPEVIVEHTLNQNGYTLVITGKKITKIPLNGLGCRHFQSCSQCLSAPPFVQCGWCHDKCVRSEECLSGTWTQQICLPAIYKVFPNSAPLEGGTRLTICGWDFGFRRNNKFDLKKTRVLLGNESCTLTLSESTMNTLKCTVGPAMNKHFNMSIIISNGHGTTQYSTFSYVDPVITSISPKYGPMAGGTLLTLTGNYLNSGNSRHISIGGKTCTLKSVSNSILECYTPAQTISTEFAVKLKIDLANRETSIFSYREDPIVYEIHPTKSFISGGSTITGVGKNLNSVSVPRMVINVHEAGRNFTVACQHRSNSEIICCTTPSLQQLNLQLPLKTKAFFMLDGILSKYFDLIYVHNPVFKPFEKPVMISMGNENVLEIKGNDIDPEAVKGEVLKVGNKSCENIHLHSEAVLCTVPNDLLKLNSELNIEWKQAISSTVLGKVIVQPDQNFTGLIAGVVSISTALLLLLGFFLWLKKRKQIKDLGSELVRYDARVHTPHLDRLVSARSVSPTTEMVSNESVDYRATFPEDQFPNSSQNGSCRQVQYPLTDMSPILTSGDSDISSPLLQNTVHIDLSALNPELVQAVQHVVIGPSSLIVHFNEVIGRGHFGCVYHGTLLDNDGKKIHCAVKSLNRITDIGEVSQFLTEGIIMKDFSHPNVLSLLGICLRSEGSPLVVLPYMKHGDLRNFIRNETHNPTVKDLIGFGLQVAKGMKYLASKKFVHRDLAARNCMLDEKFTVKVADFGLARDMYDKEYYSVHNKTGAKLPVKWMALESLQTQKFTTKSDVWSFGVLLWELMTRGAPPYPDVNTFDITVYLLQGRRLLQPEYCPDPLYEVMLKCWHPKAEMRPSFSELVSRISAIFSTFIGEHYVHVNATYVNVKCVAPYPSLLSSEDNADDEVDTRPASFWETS
Sequence of p38α MAPK (Q16539 whole entry): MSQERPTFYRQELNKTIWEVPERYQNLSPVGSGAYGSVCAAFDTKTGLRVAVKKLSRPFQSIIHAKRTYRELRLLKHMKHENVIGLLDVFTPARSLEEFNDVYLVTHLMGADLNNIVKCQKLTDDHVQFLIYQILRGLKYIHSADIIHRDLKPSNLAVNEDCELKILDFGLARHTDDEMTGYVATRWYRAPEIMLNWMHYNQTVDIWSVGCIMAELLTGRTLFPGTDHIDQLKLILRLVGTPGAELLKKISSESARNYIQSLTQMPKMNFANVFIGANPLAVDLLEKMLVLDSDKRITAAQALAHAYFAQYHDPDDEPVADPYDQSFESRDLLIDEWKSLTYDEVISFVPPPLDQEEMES

Row | SMILES | reporter gene assay % inhibu at 5 μM (NF-…B Pathway) [%] | cell-free assay % inhibu at 62.5 μM (Recombinant PK… (PKCζ)) [%] | other results
1 | Cc1ccc(N2N=C(C(C)(C)C)CC2c2ccc(O)cc2)cc1 (stereo not drawn) [1e] | 62.9 | – | –
2 | CC(C)(C)C1=NN(c2ccc(Cl)cc2)C(c2ccc(O)cc2)C1 (stereo not drawn) [1a] | 75.1 | – | –
3 | Cc1ccc2nc(NCCN)c3ncc(C)n3c2c1.Cl [BMS-345541] | – | – | activity against LPS-induced NF-kB activation (NF-kB): active
4 | Cc1cccc(Oc2cnc(=O)[nH]c2)c1 [Tolimidone, tolimidone] | – | – | glucose lowering when Lyn kinase was absent (Lyn kinase): did not lower glucose
5 | CC(C)(C)C1=NN(c2ccc(F)cc2)C(c2ccc(O)cc2)C1 (stereo not drawn) [1b] | 63.8 | 95.5 | –
6 | O=C(Nc1nccs1)C(c1cc(F)ccc1O)N1Cc2ccc(-c3ccc(N4CCNCC4)cc3)cc2C1=O (stereo not drawn) [JBJ-04-125-02] | – | – | EGFR phosphorylation (mutant EGFR): inhibited EGFR phosphorylation
7 | Cc1cccc(N2N=C(C(C)(C)C)CC2c2ccc(O)cc2)c1 (stereo not drawn) [1k] | 73.7 | 91.7 | –
8 | O=C(NOCC(O)CO)c1ccc(F)c(F)c1Nc1ccc(I)cc1F (stereo not drawn) [Compound 35] | – | – | Sol (pH 6.5): 255, μg/mL
9 | CC(C)(C)C1=NN(c2cccc(Cl)c2)C(c2ccc(O)cc2)C1 (stereo not drawn) [1h] | 64.6 | 96.8 | –
10 | CC(=O)Nc1cccc(-n2c(=O)n(C3CC3)c(=O)c3c(Nc4ccc(I)cc4F)n(C)c(=O)c(C)c32)c1 [Trametinib] | – | – | Absorption/distribution of an oral dose of tablet [1]: 72%
11 | O=C1NC(=O)[C@@H](c2cn3c4c(cccc24)CCC3)[C@@H]1c1c[nH]c2ccccc12 [Tivantinib, tivantinib] | – | – | growth of carcinoma xenografts [2]: inhibition of growth; selectivity for c-Met over other kinases tested (c-Met): 10-100 time
12 | O=C1c2ccc(Nc3ccc(F)cc3F)cc2CCc2ccc(OC[C@H](O)CO)cc21 [Skepinone-B] | – | – | residence time (p38α MAPK): 150 s
13 | CC(C)(C)C1=NN(c2cccc(C(F)(F)F)c2)C(c2ccc(O)cc2)C1 (stereo not drawn) [1j] | 89.7 | 96.1 | –
14 | CC(C)(C)C1=NN(c2ccc(Br)cc2)C(c2ccc(O)cc2)C1 (stereo not drawn) [1c] | 58.4 | 93.2 | –
15 | CO[C@H]1C[C@@H]2CC[C@@H](C)[C@@](O)(O2)C(=O)C(=O)N2CCCC[C@H]2C(=O)O[C@H]([C@H](C)C[C@@H]2CC[C@@H](O)[C@H](OC)C2)CC(=O)[C@H](C)/C=C(\C)[C@@H](O)[C@@H](OC)C(=O)[C@H](C)C[C@H](C)/C=C/C=C/C=C/1C [Sirolimus] | – | – | MERS-COV infection of Huh7 cells (MERS-COV): inhibits MERS-COV infection
